Laboratory results: the supplement of paper PMC10307832

Experiments:
Experiment in all cases: relative viability (nuclei count vs DMSO), 5 days (fraction); higher = more cells survive
Seliciclib + Crizotinib = compound: CC[C@H](CO)Nc1nc(NCc2ccccc2)c2ncn(C(C)C)c2n1 [Seliciclib] + C[C@@H](Oc1cc(-c2cnn(C3CCNCC3)c2)cnc1N)c1c(Cl)ccc(F)c1Cl [Crizotinib] (partner 1 µM)
Method in brief: (§1)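 After 5 days of treatment, lung cancer cells in 1536-well plates were fixed and stained in a single step (final 0.05% Triton X-100, 1% formaldehyde, 1 ug/ml Hoechst) and their nuclei counted on 4× images. Treatment had been applied by pin tool the day after seeding as one drug alone or as a fixed anchor-drug dose with five library-drug doses (not always all listed) in √10 steps. Relative viability is the nuclei count of treated wells divided by that of vehicle wells, and values are medians of duplicate plates.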

Seliciclib + Phenformin = compound: CC[C@H](CO)Nc1nc(NCc2ccccc2)c2ncn(C(C)C)c2n1 [Seliciclib] + N=C(N)NC(=N)NCCc1ccccc1 [Phenformin] (partner 250 µM)
Method in brief: as §1

Seliciclib + Navitoclax = compound: CC[C@H](CO)Nc1nc(NCc2ccccc2)c2ncn(C(C)C)c2n1 [Seliciclib] + CC1(C)CCC(c2ccc(Cl)cc2)=C(CN2CCN(c3ccc(C(=O)NS(=O)(=O)c4ccc(N[C@H](CCN5CCOCC5)CSc5ccccc5)c(S(=O)(=O)C(F)(F)F)c4)cc3)CC2)C1 [Navitoclax] (partner 0.5 µM)
Method in brief: as §1

Seliciclib + Decitabine = compound: CC[C@H](CO)Nc1nc(NCc2ccccc2)c2ncn(C(C)C)c2n1 [Seliciclib] + Nc1ncn([C@H]2C[C@H](O)[C@@H](CO)O2)c(=O)n1 [Decitabine] (partner 2 µM)
Method in brief: as §1

Cell Line	relative viability (Seliciclib + Crizotinib; first compound 0.08 µM)	relative viability (Seliciclib + Crizotinib; first compound 0.253 µM)	relative viability (Seliciclib + Crizotinib; first compound 0.8 µM)	relative viability (Seliciclib + Crizotinib; first compound 2.53 µM)	relative viability (Seliciclib + Crizotinib; first compound 8 µM)	relative viability (Seliciclib + Phenformin; first compound 0.08 µM)	relative viability (Seliciclib + Phenformin; first compound 0.253 µM)	relative viability (Seliciclib + Phenformin; first compound 0.8 µM)	relative viability (Seliciclib + Phenformin; first compound 2.53 µM)	relative viability (Seliciclib + Phenformin; first compound 8 µM)	relative viability (Seliciclib + Navitoclax; first compound 0.08 µM)	relative viability (Seliciclib + Navitoclax; first compound 0.253 µM)	relative viability (Seliciclib + Navitoclax; first compound 0.8 µM)	relative viability (Seliciclib + Navitoclax; first compound 2.53 µM)	relative viability (Seliciclib + Navitoclax; first compound 8 µM)	relative viability (Seliciclib + Decitabine; first compound 0.08 µM)	relative viability (Seliciclib + Decitabine; first compound 0.253 µM)	relative viability (Seliciclib + Decitabine; first compound 0.8 µM)	relative viability (Seliciclib + Decitabine; first compound 2.53 µM)	relative viability (Seliciclib + Decitabine; first compound 8 µM)
201T	1.04	0.996	1.04	1.02	0.95	0.413	0.441	0.47	0.383	0.418	1.18	1.17	1.2	1.2	1.13	0.827	0.893	0.857	0.806	0.728
A549	0.674	0.82	0.799	0.809	0.591	0.154	–	0.183	0.171	0.127	1.08	1.06	1.21	1.19	0.925	0.279	0.235	0.188	0.286	0.248
A-427	0.833	0.924	0.795	0.905	0.785	0.325	0.354	0.307	0.276	0.295	1.01	0.95	0.809	0.946	0.95	0.606	0.521	0.612	0.52	0.589
ABC-1	1.2	1.46	0.814	1.08	0.495	0.251	0.257	0.234	0.281	0.222	–	–	–	–	–	1.11	1.18	1.17	–	0.6
BEN	0.753	–	0.822	0.929	0.832	0.268	0.249	0.125	0.284	0.227	0.0594	–	0.0808	0.213	0.0793	0.738	0.739	0.761	0.698	0.622
CAL-12T	0.624	–	0.846	0.687	0.461	0.604	0.789	0.612	0.53	0.376	1.25	–	1.04	1.03	1.06	–	–	–	–	–
COR-L23	0.61	0.806	0.693	0.671	0.519	0.435	0.534	0.465	0.378	0.382	0.906	1.1	0.867	1.06	0.733	0.395	0.34	0.478	0.419	0.403
COR-L 105	0.846	0.698	0.698	0.806	0.6	0.466	0.565	0.549	0.389	0.481	0.86	0.624	0.597	0.763	0.684	0.568	0.664	0.648	0.605	0.557
Calu-6	0.773	0.846	0.825	0.956	0.668	–	–	–	–	–	0.796	0.933	0.939	0.895	0.825	–	–	–	–	–
ChaGo-K-1	1.14	1.01	1.12	1.12	0.488	0.485	0.389	0.508	0.422	0.384	1.03	0.567	0.949	0.755	0.431	0.519	0.472	0.509	0.516	0.475
EBC-1	0.199	0.226	0.199	0.201	0.213	–	–	–	–	–	0.447	0.417	0.402	0.333	0.231	–	–	–	–	–
EKVX	0.743	1.14	0.877	1.11	0.817	–	0.255	0.189	0.215	0.199	0.951	1.1	0.865	0.777	0.702	0.299	0.224	0.366	0.184	0.377
EMC-BAC-2	0.735	0.744	0.824	0.728	0.534	0.505	0.515	0.524	0.436	0.479	1.13	1.11	1.1	1.27	1.09	0.918	1.01	1	0.753	0.856
EPLC-272H	0.88	0.729	0.746	0.903	0.636	0.329	0.335	0.295	0.219	0.333	1.24	0.987	1.12	1.28	1.12	0.373	0.432	0.336	0.395	0.342
H3255	0.787	0.892	1.01	0.965	0.727	0.357	0.357	0.368	0.322	0.348	0.656	0.558	0.512	0.436	0.46	0.594	0.61	0.684	0.571	0.479
HARA	1.06	1.16	1.06	1.21	0.638	0.424	0.423	0.469	0.47	0.393	1.13	1.23	1.11	1.16	1.07	0.456	0.655	0.56	0.474	0.6
HCC-15	0.798	0.856	0.806	0.869	0.599	0.491	0.519	0.419	0.383	0.352	0.719	0.77	0.677	0.718	0.491	0.685	0.814	0.629	0.457	0.527

Cell Line	relative viability (Seliciclib + Crizotinib; first compound 0.08 µM)	relative viability (Seliciclib + Crizotinib; first compound 0.253 µM)	relative viability (Seliciclib + Crizotinib; first compound 0.8 µM)	relative viability (Seliciclib + Crizotinib; first compound 2.53 µM)	relative viability (Seliciclib + Crizotinib; first compound 8 µM)	relative viability (Seliciclib + Phenformin; first compound 0.08 µM)	relative viability (Seliciclib + Phenformin; first compound 0.253 µM)	relative viability (Seliciclib + Phenformin; first compound 0.8 µM)	relative viability (Seliciclib + Phenformin; first compound 2.53 µM)	relative viability (Seliciclib + Phenformin; first compound 8 µM)	relative viability (Seliciclib + Navitoclax; first compound 0.08 µM)	relative viability (Seliciclib + Navitoclax; first compound 0.253 µM)	relative viability (Seliciclib + Navitoclax; first compound 0.8 µM)	relative viability (Seliciclib + Navitoclax; first compound 2.53 µM)	relative viability (Seliciclib + Navitoclax; first compound 8 µM)	relative viability (Seliciclib + Decitabine; first compound 0.08 µM)	relative viability (Seliciclib + Decitabine; first compound 0.253 µM)	relative viability (Seliciclib + Decitabine; first compound 0.8 µM)	relative viability (Seliciclib + Decitabine; first compound 2.53 µM)	relative viability (Seliciclib + Decitabine; first compound 8 µM)
HCC-44	0.709	0.842	0.778	0.821	0.698	0.309	0.126	0.375	0.0882	0.174	1.05	0.934	0.957	1.07	1.03	0.946	0.996	0.99	0.927	0.906
HCC-78	0.364	0.333	0.327	0.262	0.274	0.706	0.795	0.65	0.536	0.474	0.73	0.969	0.738	0.703	0.557	0.706	0.659	0.757	0.641	0.538
IA-LM	0.596	1.17	0.92	0.906	0.622	–	–	–	–	–	0.738	1.15	0.732	0.772	0.72	–	–	–	–	–
LCLC-103H	1.02	1.04	0.955	0.975	0.919	0.393	0.337	0.347	0.308	0.316	–	–	–	–	–	0.781	0.727	0.755	0.735	0.644
NCI-H358	0.54	0.709	0.546	0.544	0.246	0.347	0.392	0.248	0.241	0.209	–	–	–	–	–	0.204	0.216	0.221	0.193	0.176
NCI-H522	–	–	–	–	–	0.731	0.655	0.645	0.599	0.709	–	–	–	–	–	0.699	0.545	0.659	0.645	0.611
NCI-H650	0.65	0.713	0.84	–	0.543	0.48	0.467	0.532	0.257	0.46	–	–	–	–	–	0.333	0.299	0.306	0.295	0.332
NCI-H661	0.98	1.12	0.939	–	0.894	0.274	0.26	0.297	0.264	0.304	–	–	–	–	–	0.552	0.597	0.549	0.511	0.435
NCI-H1299	0.983	1.07	0.935	0.993	0.943	–	–	–	–	–	0.996	1.14	1.02	1.03	1	–	–	–	–	–
NCI-H1395	–	–	–	–	–	0.433	0.438	0.455	0.453	0.428	1.12	0.936	1.31	1.08	1.06	0.729	0.621	0.681	–	0.705
NCI-H1563	0.832	0.73	0.889	0.899	0.836	0.754	0.63	0.651	0.626	0.664	–	–	–	–	–	–	–	–	–	–
NCI-H1648	–	–	–	–	–	–	–	–	–	–	–	–	–	–	–	0.486	0.615	0.605	0.45	0.473
NCI-H1703	0.643	0.609	0.563	0.635	0.556	–	–	–	–	–	0.957	0.862	1.05	1.21	0.87	–	–	–	–	–
NCI-H1793	–	–	–	–	–	0.378	0.307	0.378	0.32	0.227	0.432	0.335	0.326	0.511	0.313	0.496	0.47	0.477	0.539	0.529
NCI-H2228	0.505	0.414	0.383	0.672	0.396	0.322	0.209	0.287	0.275	0.257	0.562	0.447	0.913	0.735	0.653	–	–	–	–	–
NCI-H2342	–	–	–	–	–	0.606	0.54	0.533	0.496	0.521	–	–	–	–	–	0.668	0.637	0.736	0.649	0.747
SW 900	–	–	–	–	–	0.62	0.6	0.404	0.643	0.418	–	–	–	–	–	0.45	0.403	0.457	0.478	0.346
